Measured values as given in US20100324091A1, “Pyrazolone Derivative” (Kowa Company, Ltd., priority 2007, published 2010).

What was measured:
C57BL/6 mice = assay: Bleomycin-induced lung fibrosis model; type: in vivo; conditions: Mus musculus, po, 504 h, 0.3 mg/kg orally once a day, three weeks after intratracheal bleomycin 6 mg/kg, vs solvent-administered group, read-out: Inhibitory ratio against the increment in the lung hydroxyproline amount
Excerpt: It is reported that administering bleomycin into the trachea induces fibrosis of the lung. According to the pathological observation, it is similar to clinical idiopathic pulmonary fibrosis in terms of the thickened fibrosis of the alveolar wall, an increase in inflammatory cells, an increment in the amount of hydroxyproline, etc., and is often used as a lung fibrosis experimental model (Biochem. Biophys. Res. Comm., 288, 747 (2001)). Bleomycin hydrochloride (Bleo: Nippon Kayaku Co., Ltd.) dissolved in physiological saline was injected with 500 μl of compressed air into the bronchi of C57BL/6 mice (6 week old, female) at 6 mg/kg and 25 μl/body. Three weeks after the intratracheal administration, the amount of hydroxyproline in the lung was measured. The materials to be tested, at 0.3 mg/kg per dose, were suspended in 0.5% sodium carboxymethyl cellulose, and administered orally once a day. The effect of the present invention is represented by a inhibitory ratio against the increment in the amount of lung hydroxyproline of the solvent-administered group, and is shown in Table 3 below.

[1] = test system: PAI-1 production in human bronchial epithelial cells (BEAS-2B); assay: PAI-1 production inhibitory activity using bronchial epithelial cells; type: cell-based; conditions: BEAS-2B cells, TGF-β stimulation, 24 hrs, PAI-1 in supernatant by ELISA
Description: The effect of a compound against PAI-1 production activity was investigated using bronchial epithelial cells which reflect the PAI-1 concentration in the lung tissue involved in fibrosis (lung).
The effect against the amount of PAI-1 production was investigated using human bronchial epithelial cells (BEAS-2B). 0.1 ml of the BEAS-2B cells prepared to 2×10^5 cells/ml were added to each of the 96 wells of a collagen I coated plate, and precultured for 24 hrs. Then 0.1 ml of a medium containing […] of TGF-β was added, and after 24 hrs of incubation, the PAI-1 amount in the supernatant of the medium was measured by an ELISA kit. The materials to be tested were, after dissolved in dimethyl sulfoxide (the final concentration: 0.1% or lower), prepared to 0.2, 1, 5, and 25 μM with a phosphate buffer solution, and added to the preculture.

Row | SMILES | inhibition in vivo at 0.3 mg/kg (C57BL/6 mice) [%] | IC50 [1] [nM]
1 | COc1ccc(C2=NNC(=O)C2)cc1OC1Cc2ccccc2C1 [Compound No. 1, 3-(3-(2-indanyloxy)-4-methoxyphenyl)-5-pyrazolone] | 77 | –
2 | COc1ccc(C2=NN(C)C(=O)C2)cc1OC1Cc2ccccc2C1 [Compound No. 2, 3-(3-(2-indanyloxy)-4-methoxyphenyl)-1-methyl-5-pyrazolone] | 75 | 1420
3 | O=C1CC(c2ccc(OC(F)F)c(OC3CCCC3)c2)=NN1 [Compound No. 8, 3-(3-(cyclopentyloxy)-4-(difluoromethoxy)phenyl)-5-pyrazolone] | 61 | –
4 | COc1ccc(C2=NNC(=O)C2)cc1OC1CCCC1 [Compound No. 3, 3-(3-(cyclopentyloxy)-4-methoxyphenyl)-5-pyrazolone] | 73 | 7590
5 | COc1ccc(C2=NN(C)C(=O)C2)cc1OC1CCCC1 [Compound No. 4, 3-(3-(cyclopentyloxy)-4-methoxyphenyl)-1-methyl-5-pyrazolone] | 73 | –
6 | COc1ccc(C2=NN(c3ccc(C(=O)O)cc3)C(=O)C2)cc1OC1CCCC1 [Compound No. 7, 3-(3-(cyclopentyloxy)-4-methoxyphenyl)-1-(4-hydroxycarbonylphenyl)-5-pyrazolone] | 57 | –
7 | COc1ccc(C2=NN(c3ccccc3)C(=O)C2)cc1OC1CCCC1 [Compound No. 6, 3-(3-(cyclopentyloxy)-4-methoxyphenyl)-1-phenyl-5-pyrazolone] | 52 | 2560
8 | COc1ccc(C2=NNC(=O)C2)cc1OCC1CC1 [Compound No. 9, 3-(3-(cyclopropylmethoxy)-4-methoxyphenyl)-5-pyrazolone] | 60 | –
9 | COc1ccc(C2=NN(c3ccccc3)C(=O)C2)cc1OC1Cc2ccccc2C1 [Compound No. 5, 3-(3-(2-indanyloxy)-4-methoxyphenyl)-1-phenyl-5-pyrazolone] | 75 | –
